Here are results for 24 compounds from US20250059172A1, “INDAZOLE COMPOUND AND PHARMACEUTICAL” (NIPPON SHINYAKU CO., LTD., priority 2021, published 2025).

The target of test [1] is human mPGES-1 (Homo sapiens (Human), UniProt O14684). In words: mPGES-1 inhibitory activity test. The settings on record: for inhibition at 0.01 µM: 10 nM test compound; for inhibition at 0.1 µM: 100 nM test compound. It is filed as biochemical. Summed up: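 PGE2 formation was quantified by HTRF and reported as percent inhibition at 10 and 100 nM compound or as IC50. The 60-second reaction at 4° C used 1 μM PGH2, after a 20-minute 4° C preincubation of compound (1% DMSO final) with glutathione-supplemented (2.5 mM, pH 7.4) microsomes. The microsomes were from transiently transfected CHO-K1 cells expressing human mPGES-1.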
Chain of human mPGES-1 (O14684 whole entry): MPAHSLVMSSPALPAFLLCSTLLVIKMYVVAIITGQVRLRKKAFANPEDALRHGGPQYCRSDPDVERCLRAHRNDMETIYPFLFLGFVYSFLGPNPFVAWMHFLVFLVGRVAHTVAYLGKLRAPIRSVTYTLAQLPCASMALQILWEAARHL

Test [2] relates to human A549 cells. The test can be described thus: Inhibition test of PGE2 production using human A549 cells. The test is classed as cell-based. The settings on record: IL-1β stimulated A549 cells, 24 h, PGE2 by HTRF, read-out: A549 cell inhibition of PGE2 production IC50. Summed up:
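A549 cells were preincubated 60 min with compound in RPMI/3% FBS (0.1% DMSO final), then stimulated with IL-1β (5 ng/well) for 24 h at 37°C. PGE2 was measured by HTRF and PGF2a by EIA; activity was normalized to stimulated minus unstimulated controls, and IC50 derived.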

For `COc1cc(-n2ncc3c(NC(=O)c4cc(CNC(=O)C(C)(C)CO)ccc4Cl)cccc32)ccn1` [Example 164, 2-Chloro-5-{[(3-hydroxy-2,2-dimethylpropanoyl)amino]methyl}-N-[1-(2-methoxypyridin-4-yl)-1H-indazol-4-yl]benzamide], in test [1], the inhibition at 0.01 µM was determined as 69% and the inhibition at 0.1 µM is 100%. In addition, the IC50 in test [2] was found to be 28.4 nM.

`COc1cc(-n2ncc3c(NC(=O)c4cc(CNS(=O)(=O)C5CC5)ccc4Cl)cccc32)ccn1` [Example 165, 2-Chloro-5-{[(cyclopropylsulfonyl)amino]methyl}-N-[1-(2-methoxypyridin-4-yl)-1H-indazol-4-yl]benzamide]: in test [1], the inhibition at 0.01 µM came out at 80% and the inhibition at 0.1 µM was found to be 96%. Further, the IC50 in test [2] worked out at 8.6 nM.

Consider `O=C(Nc1cccc2c1cnn2-c1cncc(C(F)(F)F)c1)c1cc(CNC(=O)C2(C(F)(F)F)CC2)ccc1Cl` [Example 168, 2-Chloro-5-[({[1-(trifluoromethyl)cyclopropyl]carbonyl}amino)methyl]-N-{1-[5-(trifluoromethyl)pyridin-3-yl]-1H-indazol-4-yl}benzamide], for which, in test [1], the inhibition at 0.01 µM came out at 53% and the inhibition at 0.1 µM turned out to be 92%. The IC50 in test [2] worked out at 1.2 nM.

Take `CC(C)(CO)C(=O)NCc1ccc(Cl)c(C(=O)Nc2cccc3c2cnn3-c2cncc(C(F)(F)F)c2)c1` [Example 171, 2-Chloro-5-{[(3-hydroxy-2,2-dimethylpropanoyl)amino]methyl}-N-{1-[5-(trifluoromethyl)pyridin-3-yl]-1H-indazol-4-yl}benzamide]: in test [1], the inhibition at 0.1 µM was found to be 100%. In addition, the IC50 in test [2] stood at 9.6 nM.

In the case of `O=C(Nc1cccc2c1cnn2-c1cncc(C(F)(F)F)c1)c1cc(CNS(=O)(=O)C2CC2)ccc1Cl` [Example 172, 2-Chloro-5-{[(cyclopropylsulfonyl)amino]methyl}-N-{l-[5-(trifluoromethyl)pyridin-3-yl]-1H-indazol-4-yl}benzamide], the inhibition at 0.01 µM in test [1] turned out to be 100%. Also, in test [2], the IC50 came out at 5.6 nM.

Take `CC(C)(C)CC(=O)NCc1ccc(Cl)c(C(=O)Nc2cccc3c2cnn3-c2ccc(C(F)(F)F)nc2)c1` [Example 173, 2-Chloro-5-{[(3,3-dimethylbutanoyl)amino]methyl}-N-{1-[6-(trifluoromethyl)pyridin-3-yl]-1H-indazol-4-yl}benzamide]: in test [1], the inhibition at 0.01 µM was found to be 54% and the inhibition at 0.1 µM was 86%. Further, in test [2], the IC50 worked out at 6.7 nM.

In the case of `O=C(Nc1cccc2c1cnn2-c1ccc(C(F)(F)F)nc1)c1cc(CNC(=O)C2CCCC2)ccc1Cl` [Example 174, 2-Chloro-5-{[(cyclopentylcarbonyl)amino]methyl}-N-{1-[6-(trifluoromethyl)pyridin-3-yl]-1H-indazol-4-yl}benzamide], in test [1], the inhibition at 0.01 µM was 85% and the inhibition at 0.1 µM was 86%. In addition, the IC50 in test [2] came out at 1.9 nM.

As to `O=C(Nc1cccc2c1cnn2-c1ccc(C(F)(F)F)nc1)c1cc(CNS(=O)(=O)C2CC2)ccc1Cl` [Example 179, 2-Chloro-5-{[(cyclopropylsulfonyl)amino]methyl}-N-{1-[6-(trifluoromethyl)pyridin-3-yl]-1H-indazol-4-yl}benzamide], in test [1], the inhibition at 0.01 µM stood at 59% and the inhibition at 0.1 µM was 95%. Besides, in test [2], the IC50 is 4.4 nM.

In the case of `CC(C)n1ncc2c(NC(=O)c3cc(CNC(=O)C4CCCC4)ccc3Cl)cccc21` [Example 180, 2-Chloro-5-{[(cyclopentylcarbonyl)amino]methyl}-N-[1-(propan-2-yl)-1H-indazol-4-yl]benzamide], the inhibition at 0.01 µM in test [1] is 75%. In test [2], the IC50 was found to be 40.6 nM.

Regarding `O=C(Nc1cccc2c1cnn2-c1cscn1)c1cc(CNC(=O)C2CCCC2)ccc1Cl` [Example 188, 2-Chloro-5-{[(cyclopentylcarbonyl)amino]methyl}-N-[1-(1,3-thiazol-4-yl)-1H-indazol-4-yl]benzamide], the inhibition at 0.01 µM in test [1] came to 68%. Further, in test [2], the IC50 worked out at 102 nM.

For `O=C(Nc1cccc2c1cnn2-c1cscn1)c1cc(CNC(=O)C2(C(F)(F)F)CC2)ccc1Cl` [Example 189, 2-Chloro-N-[1-(1,3-thiazol-4-yl)-1H-indazol-4-yl]-5-[({[1-(trifluoromethyl)cyclopropyl]carbonyl}amino)methyl]benzamide], the inhibition at 0.01 µM in test [1] turned out to be 80%. In test [2], the IC50 turned out to be 23.6 nM.

On to `CC(C)(CO)C(=O)NCc1ccc(Cl)c(C(=O)Nc2cccc3c2cnn3-c2cscn2)c1` [Example 192, 2-Chloro-5-{[(3-hydroxy-2,2-dimethylpropanoyl)amino]methyl}-N-[1-(1,3-thiazol-4-yl)-1H-indazol-4-yl]benzamide], for which, in test [1], the inhibition at 0.01 µM is 70% and the inhibition at 0.1 µM was 90%. Also, the IC50 in test [2] turned out to be 31.4 nM.

As to `O=C(Nc1cccc2c1cnn2-c1cscn1)c1cc(CNS(=O)(=O)C2CC2)ccc1Cl` [Example 193, 2-Chloro-5-{[(cyclopropylsulfonyl)amino]methyl}-N-[1-(1,3-thiazol-4-yl)-1H-indazol-4-yl]benzamide], the inhibition at 0.01 µM in test [1] came to 71%. For the same compound, in test [2], the IC50 was determined as 33 nM.

Take `CC(C)(C)C(=O)NCc1ccc(C(F)(F)F)c(C(=O)Nc2cccc3c2cnn3-c2ccc(OC(F)(F)F)cc2)c1` [Example 194, 5-{[(2,2-Dimethylpropanoyl)amino]methyl}-N-{1-[4-(trifluoromethoxy)phenyl]-1H-indazol-4-yl}-2-(trifluoromethyl)benzamide]: in test [1], the inhibition at 0.01 µM worked out at 62% and the inhibition at 0.1 µM stood at 83%. Also, the IC50 in test [2] came out at 0.7 nM.

As to `CC(C)(C)C(=O)NCc1ccc(C(F)(F)F)c(C(=O)Nc2cccc3c2cnn3-c2cccc(OC(F)(F)F)c2)c1` [Example 195, 5-{[(2,2-Dimethylpropanoyl)amino]methyl}-N-{1-[3-(trifluoromethoxy)phenyl]-1H-indazol-4-yl}-2-(trifluoromethyl)benzamide], in test [1], the inhibition at 0.01 µM is 65% and the inhibition at 0.1 µM is 84%. The IC50 in test [2] came out at 0.8 nM.

For the compound `CC(C)(C)C(=O)NCc1ccc(C(F)(F)F)c(C(=O)Nc2cccc3c2cnn3-c2ccc(C(F)(F)F)nc2)c1` [Example 196, 5-{[(2,2-Dimethylpropanoyl)amino]methyl}-2-(trifluoromethyl)-N-{1-[6-(trifluoromethyl)pyridin-3-yl]-1H-indazol-4-yl}benzamide], in test [1], the inhibition at 0.01 µM was 60% and the inhibition at 0.1 µM amounted to 78%. The IC50 in test [2] was determined as 2 nM.

Regarding `Cc1ccc(-n2ncc3c(NC(=O)c4cc(CNC(=O)C(C)(C)C)ccc4C(F)(F)F)cccc32)cc1Cl` [Example 200, N-[1-(3-chloro-4-methylphenyl)-1H-indazol-4-yl]-5-{[(2,2-dimethylpropanoyl)amino]methyl}-2-(trifluoromethyl)benzamide], in test [1], the inhibition at 0.01 µM was 69% and the inhibition at 0.1 µM worked out at 103%. The IC50 in test [2] was 0.9 nM.

As for `CC(C)(C)C(=O)NCc1ccc(C(F)(F)F)c(C(=O)Nc2cccc3c2cnn3-c2cscn2)c1` [Example 201, 5-{[(2,2-Dimethylpropanoyl)amino]methyl}-N-[1-(1,3-thiazol-4-yl)-1H-indazol-4-yl]-2-(trifluoromethyl)benzamide], in test [1], the inhibition at 0.01 µM was determined as 85% and the inhibition at 0.1 µM is 97%. In test [2], the IC50 is 20.1 nM.

As for `CC(C)n1ncc2c(NC(=O)c3cc(CNC(=O)C(C)(C)C)ccc3C(F)(F)F)cccc21` [Example 202, 5-{[(2,2-Dimethylpropanoyl)amino]methyl}-N-[1-(propan-2-yl)-1H-indazol-4-yl]-2-(trifluoromethyl)benzamide], in test [1], the inhibition at 0.01 µM stood at 59% and the inhibition at 0.1 µM came to 79%. The IC50 in test [2] was determined as 20.2 nM.

As for `Cn1ncc2c(NC(=O)c3cc(CNC(=O)C4CCCC4)ccc3Cl)cccc21` [Example 204, 2-Chloro-5-{[(cyclopentylcarbonyl)amino]methyl}-N-(1-methyl-1H-indazol-4-yl)benzamide], in test [1], the inhibition at 0.01 µM came to 57% and the inhibition at 0.1 µM turned out to be 85%. Further, in test [2], the half-maximal inhibitory concentration (IC50) worked out at 43.6 nM.

Regarding `COCC(=O)NCc1ccc(Cl)c(C(=O)Nc2cccc3c2cnn3C)c1` [Example 207, 2-Chloro-5-{[(methoxyacetyl)amino]methyl}-N-(1-methyl-1H-indazol-4-yl)benzamide], the inhibition at 0.01 µM in test [1] stood at 59%. In test [2], the IC50 was 303 nM.

`Cn1ncc2c(NC(=O)c3cc(CNS(=O)(=O)C4CC4)ccc3Cl)cccc21` [Example 208, 2-Chloro-5-{[(cyclopropylsulfonyl)amino]methyl}-N-(1-methyl-1H-indazol-4-yl)benzamide]: in test [1], the inhibition at 0.01 µM was determined as 63% and the inhibition at 0.1 µM turned out to be 68%. Besides, in test [2], the IC50 is 799 nM.

`Cn1ncc2c(NC(=O)c3cc(CNC(=O)C(C)(C)C)ccc3C(F)(F)F)cccc21` [Example 209, 5-{[(2,2-Dimethylpropanoyl)amino]methyl}-N-(1-methyl-1H-indazol-4-yl)-2-(trifluoromethyl)benzamide]: in test [1], the inhibition at 0.01 µM amounted to 76% and the inhibition at 0.1 µM stood at 90%. Moreover, the IC50 in test [2] is 38.4 nM.

Consider `CCn1ncc2c(NC(=O)c3cc(CNC(=O)CC(C)(C)C)ccc3Cl)cccc21` [Example 210, 2-Chloro-5-{[(3,3-dimethylbutanoyl)amino]methyl}-N-(1-ethyl-1H-indazol-4-yl)benzamide], for which, in test [1], the inhibition at 0.01 µM turned out to be 64%. In test [2], the IC50 was determined as 379 nM.
